Patent US10253027B2, “Aryl lactam kinase inhibitors” (Bristol-Myers Squibb Company, priority 2013, dated 2019)

These compounds were tested against T1, GST-Xa-hAAK1 (Homo sapiens, UniProt Q2M2I8) (assay: AAK1 Kinase Assay). Settings: IC50 (nM), ATP 22 μM; 3 hours at room temperature; Caliper LabChip 3000.
T1 construct: made in house
T1 sequence (Q2M2I8 whole entry): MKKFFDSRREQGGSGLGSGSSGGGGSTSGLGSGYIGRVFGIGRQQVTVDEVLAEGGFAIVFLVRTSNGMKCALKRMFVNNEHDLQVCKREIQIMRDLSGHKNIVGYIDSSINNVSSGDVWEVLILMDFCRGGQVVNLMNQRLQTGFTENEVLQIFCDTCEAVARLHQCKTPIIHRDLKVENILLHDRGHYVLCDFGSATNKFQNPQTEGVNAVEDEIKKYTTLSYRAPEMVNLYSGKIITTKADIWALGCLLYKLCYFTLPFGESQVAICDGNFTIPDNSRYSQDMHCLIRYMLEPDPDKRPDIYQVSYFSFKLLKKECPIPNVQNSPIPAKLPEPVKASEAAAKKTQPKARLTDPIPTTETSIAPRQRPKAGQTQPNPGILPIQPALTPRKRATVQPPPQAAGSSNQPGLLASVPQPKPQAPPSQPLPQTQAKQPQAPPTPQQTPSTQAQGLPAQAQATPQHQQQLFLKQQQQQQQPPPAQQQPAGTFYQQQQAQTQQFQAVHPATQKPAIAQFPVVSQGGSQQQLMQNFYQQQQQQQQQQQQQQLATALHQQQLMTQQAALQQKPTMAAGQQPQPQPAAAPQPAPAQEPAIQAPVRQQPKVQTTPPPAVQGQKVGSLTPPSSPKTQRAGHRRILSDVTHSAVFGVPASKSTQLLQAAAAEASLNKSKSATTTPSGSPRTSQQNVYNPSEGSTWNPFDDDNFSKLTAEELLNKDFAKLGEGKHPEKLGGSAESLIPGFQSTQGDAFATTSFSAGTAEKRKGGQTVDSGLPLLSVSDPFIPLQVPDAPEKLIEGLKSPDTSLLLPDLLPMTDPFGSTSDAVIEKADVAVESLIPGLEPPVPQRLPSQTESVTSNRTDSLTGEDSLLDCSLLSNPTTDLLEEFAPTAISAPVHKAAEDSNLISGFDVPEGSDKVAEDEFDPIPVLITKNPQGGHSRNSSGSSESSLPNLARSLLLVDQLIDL
Assay type: biochemical
Description: The assays were performed in U-bottom 384-well plates. […] The reactions were initiated by the combination of bacterially expressed, GST-Xa-hAAK1 with substrates and test compounds. The reactions were incubated at room temperature for 3 hours and terminated by adding 60 μl of 35 mM EDTA buffer to each sample. The reactions were analyzed on the Caliper LabChip 3000 (Caliper, Hopkinton, Mass.) by electrophoretic separation of the fluorescent substrate and phosphorylated product. […] Compounds were dissolved at 10 mM in dimethylsulfoxide (DMSO) and evaluated at eleven concentrations. IC50 values were derived by non-linear regression analysis.
Compound COc1cc(NC(=O)C2CNC(=O)N2)ccc1-c1cnco1 (stereo not shown) [Example 57, N-(3-Methoxy-4-(oxazol-5-yl)phenyl)-2-oxoimidazolidine-4-carboxamide] has an IC50 of 780 nM. COc1cc(NC(=O)[C@@H](CC(C)C)NCc2cnn(C)c2)ccc1-c1cnco1 [Example 64, (R)—N-(3-Methoxy-4-(oxazol-5-yl)phenyl)-4-methyl-2-(((1-methyl-1H-pyrazol-4-yl)methyl)amino)pentanamide] gave an IC50 of 150 nM. With COc1cc(NC(=O)[C@H](N)CC2CCC2)c(F)cc1-c1cnco1 (stereo in doubt) [Example 94, 2-Amino-3-cyclobutyl-N-(2-fluoro-5-methoxy-4-(oxazol-5-yl)phenyl)propanamide] the IC50 was 750 nM. CCN(C(=O)[C@H](N)CC(C)C)c1ccc(-c2cnco2)c(OC)c1 [Example 10, (R)-2-Amino-N-ethyl-N-(3-methoxy-4-(oxazol-5-yl)phenyl)-4-methylpentanamide] gave an IC50 of 5010 nM. COc1cc(NC(=O)[C@@H]2CCCN2C(C)C)ccc1-c1cnco1 [Example 81, (S)-1-Isopropyl-N-(3-methoxy-4-(oxazol-5-yl)phenyl)pyrrolidine-2-carboxamide] was tested, and the IC50 was 510 nM. With COc1cc(NC(=O)C(N)CC(C)C)ccc1-c1ccnc(N)c1 (stereo not shown) [Example 45, 2-Amino-N-(4-(2-aminopyridin-4-yl)-3-methoxyphenyl)-4-methylpentanamide] the IC50 was 150 nM. Work on CC(C)C[C@@H](N)C(=O)Nc1ccc(-c2ccncc2)cc1C(F)(F)F [Example 111, (R)-2-Amino-4-methyl-N-(4-(pyridin-4-yl)-2-(trifluoromethyl)phenyl)pentanamide] yielded an IC50 of 300 nM. CC(C)C[C@@H](N)C(=O)Nc1ccc(-c2ccncc2)cc1-c1cn[nH]c1 [Example 112, (R)—N-(2-(1H-pyrazol-4-yl)-4-(pyridin-4-yl)phenyl)-2-amino-4-methylpentanamide] was tested, and the IC50 was 1340 nM. Work on COc1cc(NC(=O)C(N)CC(C)C)ccc1-c1cnco1 (stereo not shown) [Example 7, 2-Amino-N-(3-methoxy-4-(oxazol-5-yl)phenyl)-4-methylpentanamide] yielded an IC50 of 64 nM. COc1cc(NC(=O)[C@H]2C[C@H](OC)CN2)ccc1-c1cnco1 [Example 78, (2R,4S)-4-Methoxy-N-(3-methoxy-4-(oxazol-5-yl)phenyl)pyrrolidine-2-carboxamide] gave an IC50 of 2900 nM. Work on CC(C)C[C@@H](N)C(=O)Nc1ccc(-c2cnco2)c(C(F)(F)F)c1 [Example 11, (R)-2-Amino-4-methyl-N-(4-(oxazol-5-yl)-3-(trifluoromethyl)phenyl)pentanamide] yielded an IC50 of 1520 nM. Compound COc1cc(NC(=O)[C@H](N)CC(C)C)ccc1-c1ccncc1 [Example 20, (R)-2-Amino-N-(3-methoxy-4-(pyridin-4-yl)phenyl)-4-methylpentanamide] has an IC50 of 63 nM. With COc1cc(NC(=O)[C@H](N)CC(C)(C)C)ccc1-c1cnco1 [Example 74, (R)-2-Amino-N-(3-methoxy-4-(oxazol-5-yl)phenyl)-4,4-dimethylpentanamide] the IC50 was 680 nM. For COc1cc(NC(=O)[C@@H](CC(C)C)NCc2cccn2C)ccc1-c1cnco1 [Example 61, (R)—N-(3-Methoxy-4-(oxazol-5-yl)phenyl)-4-methyl-2-(((1-methyl-1H-pyrrol-2-yl)methyl)amino)pentanamide], the IC50 was 72 nM. COc1cc(NC(=O)C(CC(C)C)N[C@H]2CC[C@H](N)CC2)ccc1-c1cnco1 (stereo partly drawn) [Example 31, 2-(trans-4-Aminocyclohexylamino)-N-(3-methoxy-4-(oxazol-5-yl)phenyl)-4-methylpentanamide] was tested, and the IC50 was 7320 nM. In the case of COc1cc(NC(=O)[C@H](N)CCSC)ccc1-c1cnco1 [Example 54, (R)-2-Amino-N-(3-methoxy-4-(oxazol-5-yl)phenyl)-4-(methylthio)butanamide], the IC50 is reported as 720 nM. For CC(C)C[C@@H](N)C(=O)Nc1ccc(-c2cn[nH]c2)c(OC(F)F)c1 [Example 41, 2-Amino-N-(3-(difluoromethoxy)-4-(1H-pyrazol-4-yl)phenyl)-4-methylpentanamide], the IC50 was 45 nM. COc1cc(NC(=O)C(N)CC(C)(C)F)ccc1-c1cnco1 (stereo not shown) [Example 84, 2-Amino-4-fluoro-N-(3-methoxy-4-(oxazol-5-yl)phenyl)-4-methylpentanamide] showed an IC50 of 240 nM. COc1cc(NC(=O)[C@H](N)CC(C)C)ccc1-c1cncs1 [Example 21, (R)-2-Amino-N-(3-methoxy-4-(thiazol-5-yl)phenyl)-4-methylpentanamide] showed an IC50 of 275 nM. CC(C)C[C@@H](N)C(=O)Nc1ccc(-c2cnco2)c(Br)c1 [Example 12, (R)-2-Amino-N-(3-bromo-4-(oxazol-5-yl)phenyl)-4-methylpentanamide] gave an IC50 of 55 nM. Compound CC(C)C[C@@H](N)C(=O)Nc1ccc(-c2cnco2)c(OC(F)(F)F)c1 [Example 106, (R)-2-Amino-4-methyl-N-(4-(oxazol-5-yl)-3-(trifluoromethoxy)phenyl)pentanamide] has an IC50 of 160 nM. For CCC[C@H](N)C(=O)Nc1ccc(-c2cnco2)c(OC)c1 [Example 51, (S)-2-Amino-N-(3-methoxy-4-(oxazol-5-yl)phenyl)pentanamide], the IC50 was 590 nM. Compound COc1cc(NC(=O)[C@H](N)CC(C)C)ccc1-n1ccnc1 [Example 25, (R)—N-(4-(1H-Imidazol-1-yl)-3-methoxyphenyl)-2-amino-4-methylpentanamide] has an IC50 of 3250 nM. In the case of COc1cc(NC(=O)[C@@H](CC(C)C)NCc2ccsc2)ccc1-c1cnco1 [Example 65, (R)—N-(3-Methoxy-4-(oxazol-5-yl)phenyl)-4-methyl-2-((thiophen-3-ylmethyl)amino)pentanamide], the IC50 is reported as 370 nM. COc1c(-c2cnco2)ccc(NC(=O)[C@H](N)CC(C)C)c1Cl [Example 28, (R)-2-Amino-N-(2-chloro-3-methoxy-4-(oxazol-5-yl)phenyl)-4-methylpentanamide] showed an IC50 of 709 nM. In the case of COc1cc(NC(=O)[C@H](N)CC(C)C)ccc1-n1cncn1 [Example 26, (R)-2-Amino-N-(3-methoxy-4-(1H-1,2,4-triazol-1-yl)phenyl)-4-methylpentanamide], the IC50 is reported as 955 nM. Work on COc1cc(NC(=O)[C@H](N)CC(C)C)c(-c2nncs2)cc1-c1cnco1 [Example 103] yielded an IC50 of 360 nM. For COc1cc(NC(=O)[C@@H]2NCCC[C@@H]2C(C)C)ccc1-c1cnco1 [Example 88, (2R,3R)-3-Isopropyl-N-(3-methoxy-4-(oxazol-5-yl)phenyl)piperidine-2-carboxamide], the IC50 was 8 nM. Compound COc1cc(NC(=O)[C@@H](N)CC(C)C)c(F)cc1-c1cnco1 [Example 99, (S)-2-Amino-N-(2-fluoro-5-methoxy-4-(oxazol-5-yl)phenyl)-4-methylpentanamide] has an IC50 of 780 nM. With COc1cc(NC(=O)[C@@H](CC(C)C)NS(=O)(=O)c2ccccc2)ccc1-c1cnco1 [Example 71, (R)—N-(3-methoxy-4-(oxazol-5-yl)phenyl)-4-methyl-2-(phenylsulfonamido)pentanamide] the IC50 was 400 nM. Work on CC(C)C[C@@H](N)C(=O)Nc1ccc(-c2ccncc2)cc1C#N [Example 114, (R)-2-Amino-N-(2-cyano-4-(pyridin-4-yl)phenyl)-4-methylpentanamide] yielded an IC50 of 75 nM. With COc1cc(NC(=O)[C@H](N)CC(C)C)ccc1-c1cnc[nH]1 [Example 109, (R)—N-(4-(1H-Imidazol-5-yl)-3-methoxyphenyl)-2-amino-4-methylpentanamide] the IC50 was 790 nM. COc1cc(NC(=O)[C@@H](CC(C)C)NS(=O)(=O)Cc2ccccc2)ccc1-c1cnco1 [Example 72, (R)—N-(3-Methoxy-4-(oxazol-5-yl)phenyl)-4-methyl-2-(phenylmethylsulfonamido)pentanamide] was tested, and the IC50 was 1300 nM. COc1cc(NC(=O)C(CN)CC(C)C)ccc1-c1cnco1 (stereo not shown) [Example 35, 2-(Aminomethyl)-N-(3-methoxy-4-(oxazol-5-yl)phenyl)-4-methylpentanamide] gave an IC50 of 83 nM. With COc1cc(NC(=O)C(N)CCC(F)(F)F)ccc1-c1cnco1 (stereo not shown) [Example 76, 2-Amino-5,5,5-trifluoro-N-(3-methoxy-4-(oxazol-5-yl)phenyl)pentanamide] the IC50 was 110 nM. For COc1cc(NC(=O)[C@H](N)C2CCCC2)ccc1-c1cnco1 [Example 3, (R)-2-Amino-2-cyclopentyl-N-(3-methoxy-4-(oxazol-5-yl)phenyl)acetamide], the IC50 was 53 nM. For COc1cc(NC(=O)[C@H](N)CC2CC2)ccc1-c1cnco1 [Example 9, (R)-2-Amino-3-cyclopropyl-N-(3-methoxy-4-(oxazol-5-yl)phenyl)propanamide], the IC50 was 115 nM. COc1cc(NC(=O)C(CC(C)C)N2CCC(N)C2)ccc1-c1cnco1 (stereo not shown) [Example 30, 2-(3-Aminopyrrolidin-1-yl)-N-(3-methoxy-4-(oxazol-5-yl)phenyl)-4-methylpentanamide] was tested, and the IC50 was 590 nM. COc1cc(NC(=O)C(CC(C)C)NC2CNC2)ccc1-c1cnco1 (stereo not shown) [Example 32, 2-(Azetidin-3-ylamino)-N-(3-methoxy-4-(oxazol-5-yl)phenyl)-4-methylpentanamide] was tested, and the IC50 was 1140 nM. For CCCS(=O)(=O)N[C@H](CC(C)C)C(=O)Nc1ccc(-c2cnco2)c(OC)c1 [Example 70, (R)—N-(3-Methoxy-4-(oxazol-5-yl)phenyl)-4-methyl-2-(propylsulfonamido)pentanamide], the IC50 was 310 nM. With COc1cc(NC(=O)C2NCCCC2C(C)C)ccc1-c1cnco1 (stereo not shown) [Example 85, 3-Isopropyl-N-(3-methoxy-4-(oxazol-5-yl)phenyl)piperidine-2-carboxamide] the IC50 was 8 nM. Compound COc1cc(NC(=O)[C@H](N)CC(C)C)ccc1-c1cnc2ccc(Cl)nn12 [Example 47, (R)-2-Amino-N-(4-(6-chloroimidazo[1,2-b]pyridazin-3-yl)-3-methoxyphenyl)-4-methylpentanamide] has an IC50 of 440 nM. CC(C)C[C@@H](N)C(=O)Nc1ccc(-c2ccncc2)cc1-c1nn[nH]n1 [Example 115, (R)-2-Amino-4-methyl-N-(4-(pyridin-4-yl)-2-(2H-tetrazol-5-yl)phenyl)pentanamide] gave an IC50 of 28 nM.
